One data set relates to Phytophthora infestans. Format: in vivo. The conditions noted are these: tomato, protective; application rate of 50 g/ha; 3 days after the inoculation.
For data set [1] the following is noted: hplc.
The next data set is described as follows: physchem. The conditions noted are these: hplc.
The test system of the next data set is Plasmopara viticola. The experiment in a line: Plasmopara Test (Grapevine)/protective. Format: in vivo. Conditions: protective, application rate of 50 g/ha, 6 days after the inoculation.
Setting [2] is: E/Z mixture, second of two values (Z position).

A value given as a limit tells only on which side of the number the result lay.

For orientation: chromatographic logP means a lipophilicity value derived from retention on a column. `CCOc1ccc(CC(C)NC(=O)C(=NOC)c2ccc3c(c2)CCCC3)cc1OC` (stereo not shown) [Example 1, N-[2-(4-ethoxy-3-methoxyphenyl)-1-methylethyl]-2-methoxyimino-2-(5,6,7,8-tetrahydronaphthalin-2-yl)-acetic acid amide] gave an efficacy with Phytophthora infestans of no less than 86%. In addition, the chromatographic logP in the data set “logP determined by HPLC” (E/Z mixture, (E position)) was 3.72; in the data set “logP determined by HPLC” (setting [2]), 4.04.
One may read the logP as a log measure of how a compound divides between an organic and an aqueous phase. A higher logP goes with higher lipophilicity. `CCOc1ccc(CC(C)NC(=O)C(=NOC)c2ccc(Br)cc2)cc1OC` (stereo not shown) [Example 2]: the logP in data set [1] is recorded as 3.64. Also, the chromatographic logP in “physchem” came to 3.34.
Consider `CCOc1ccc(CC(C)NC(=O)C(=NOC)c2ccc3c(c2)CCC3)cc1OC` (stereo not shown) [Example 3], for which the chromatographic logP in the data set “logP determined by HPLC” (E/Z mixture, (E position)) was found to be 3.13; in the data set “logP determined by HPLC” (setting [2]), 3.44.
Compound `CCOc1ccc(CC(C)NC(=O)C(=NOC)c2ccc(Cl)cc2)cc1OC` (stereo not shown) [Example 4] had a logP in data set [1] of 3.56. In the data set “physchem”, this compound displayed a chromatographic logP of 3.26.
Turning to `CCOc1ccc(CC(C)NC(=O)/C(=N\OC)c2ccc(Br)cc2)cc1OC` (stereo not shown) [Example 5], the chromatographic logP in “physchem” amounted to 3.64.
For the compound `CCOc1ccc(CC(C)NC(=O)/C(=N/OC)c2ccc(Br)cc2)cc1OC` (stereo not shown) [Example 6], the efficacy in the data set on Phytophthora infestans was no less than 86%; in the data set with Plasmopara viticola, no less than 96%. For the same compound, the chromatographic logP in “physchem” was determined as 3.34.
As for `CCOc1ccc(CC(C)NC(=O)/C(=N/OC)c2ccc(Cl)cc2)cc1OC` (stereo not shown) [Example 7], the efficacy is no less than 86% in the data set with Phytophthora infestans and no less than 96% in the data set on Plasmopara viticola. This compound also yielded a chromatographic logP in the data set “physchem” of 3.26.
Take `CCON=C(C(=O)NC(C)Cc1ccc(OCC)c(OC)c1)c1ccc2c(c1)CCCC2` (stereo not shown) [Example 8]: the chromatographic logP in the data set “logP determined by HPLC” (E/Z mixture, (E position)) was found to be 4.07; in the data set “logP determined by HPLC” (setting [2]), 4.41.
The matching figures for `CCON=C(C(=O)NC(C)Cc1ccc(OCC)c(OC)c1)c1ccc(Br)cc1` (stereo not shown) [Example 9]: 3.69 and 4.01.
Consider `CCOc1ccc(CC(C)NC(=O)C(=NOC)c2ccc(C)cc2)cc1OC` (stereo not shown) [Example 10], for which the logP in data set [1] turned out to be 3.34. This compound showed a chromatographic logP in the data set “physchem” of 3.04.
`CCON=C(C(=O)NC(C)Cc1ccc(OCC)c(OC)c1)c1ccc(Cl)cc1` (stereo not shown) [Example 11]: the efficacy with Phytophthora infestans was no less than 86%. Moreover, the chromatographic logP came out at 3.59 in “logP determined by HPLC” (E/Z mixture, (E position)) and 3.91 in “logP determined by HPLC” (setting [2]).
As for `CCON=C(C(=O)NC(C)Cc1ccc(OCC)c(OC)c1)c1ccc2c(c1)CCCC2` (stereo not shown) [Example 12], the chromatographic logP in the data set “logP determined by HPLC” (single value (single isomer)) is 4.41.
In turn, `CCO/N=C(/C(=O)NC(C)Cc1ccc(OCC)c(OC)c1)c1ccc2c(c1)CCCC2` (stereo not shown) [Example 13] had an efficacy in the data set with Phytophthora infestans of no less than 86%. In “logP determined by HPLC” (single value (single isomer)), this compound returned a chromatographic logP of 4.07.
In the case of `CCON=C(C(=O)NC(C)Cc1ccc(OCC)c(OC)c1)c1ccc(C)cc1` (stereo not shown) [Example 14], the efficacy with Phytophthora infestans is no less than 86%; with Plasmopara viticola, no less than 96%. Moreover, the chromatographic logP in the data set “logP determined by HPLC” (E/Z mixture, (E position)) was 3.38; in “logP determined by HPLC” (setting [2]) it was 3.71.
For `CCON=C(C(=O)NC(C)Cc1ccc(OCC)c(OC)c1)c1ccc(CC)cc1` (stereo not shown) [Example 15], the chromatographic logP in the data set “logP determined by HPLC” (E/Z mixture, (E position)) was found to be 3.73; in “logP determined by HPLC” (setting [2]), 4.05.
With `CCON=C(C(=O)NC(C)Cc1ccc(OCC)c(OC)c1)c1ccc2c(c1)CCC2` (stereo not shown) [Example 16], the chromatographic logP amounted to 3.79 in “logP determined by HPLC” (E/Z mixture, (E position)) and 4.1 in “logP determined by HPLC” (setting [2]).
In the case of `CCO/N=C(\C(=O)NC(C)Cc1ccc(OCC)c(OC)c1)c1ccc2c(c1)CCC2` (stereo not shown) [Example 17], the chromatographic logP in the data set “logP determined by HPLC” (single value (single isomer)) stood at 4.1.
Compound `CCO/N=C(/C(=O)NC(C)Cc1ccc(OCC)c(OC)c1)c1ccc2c(c1)CCC2` (stereo not shown) [Example 18] displayed a chromatographic logP in “logP determined by HPLC” (single value (single isomer)) of 3.79.
`CCO/N=C(\C(=O)NC(C)Cc1ccc(OCC)c(OC)c1)c1ccc(CC)cc1` (stereo not shown) [Example 19] yielded a chromatographic logP in the data set “logP determined by HPLC” (single value (single isomer)) of 4.05.
Same read-out and setting: then `CCO/N=C(/C(=O)NC(C)Cc1ccc(OCC)c(OC)c1)c1ccc(Br)cc1` (stereo not shown) [Example 20], with 3.69.

The record behind these values is patent US6313173A, “Glyoxylic acid amides” (Bayer Aktiengesellschaft, priority 1996, dated 2001).
